Measured values taken from ChEMBL document CHEMBL5465560, “Selectivity Literature for EUbOPEN Chemogenomic Library” (2024).

Legend:
[1] = molecular target: T1, SNF-related serine/threonine-protein kinase (Homo sapiens) (UniProt Q9NRH2); test: Selectivity interaction (KinomeScan (DiscoverX)) EUB0000695a SNRK; details: at 100 nM
T1 sequence (whole entry): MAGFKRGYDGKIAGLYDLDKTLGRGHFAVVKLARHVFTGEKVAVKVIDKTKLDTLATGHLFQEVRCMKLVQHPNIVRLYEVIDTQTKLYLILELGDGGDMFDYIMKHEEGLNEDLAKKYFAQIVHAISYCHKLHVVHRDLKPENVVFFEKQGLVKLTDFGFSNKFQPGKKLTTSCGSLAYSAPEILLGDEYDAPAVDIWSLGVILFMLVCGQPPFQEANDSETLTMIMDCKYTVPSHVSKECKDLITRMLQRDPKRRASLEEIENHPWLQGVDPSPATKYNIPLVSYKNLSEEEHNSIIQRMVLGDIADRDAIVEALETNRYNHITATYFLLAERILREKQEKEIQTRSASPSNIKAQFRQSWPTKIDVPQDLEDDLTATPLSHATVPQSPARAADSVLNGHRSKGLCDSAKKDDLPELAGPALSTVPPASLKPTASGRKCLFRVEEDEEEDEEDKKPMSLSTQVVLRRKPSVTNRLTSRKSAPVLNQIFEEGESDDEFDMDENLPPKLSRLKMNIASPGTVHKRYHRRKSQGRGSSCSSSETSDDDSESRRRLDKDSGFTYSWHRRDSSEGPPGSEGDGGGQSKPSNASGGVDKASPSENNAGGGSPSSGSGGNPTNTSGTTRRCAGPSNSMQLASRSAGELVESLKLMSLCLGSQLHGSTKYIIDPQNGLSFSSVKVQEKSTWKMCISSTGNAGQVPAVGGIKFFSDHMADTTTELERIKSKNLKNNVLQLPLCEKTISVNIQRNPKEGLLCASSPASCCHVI

[2] = molecular target: T2, Ephrin type-B receptor 3 (Homo sapiens) (UniProt P54753); test: Selectivity interaction (Kinase panel (Z-LYTE Assay)) EUB0001632a EPHB3; details: at 10 µM
T2 sequence (whole entry): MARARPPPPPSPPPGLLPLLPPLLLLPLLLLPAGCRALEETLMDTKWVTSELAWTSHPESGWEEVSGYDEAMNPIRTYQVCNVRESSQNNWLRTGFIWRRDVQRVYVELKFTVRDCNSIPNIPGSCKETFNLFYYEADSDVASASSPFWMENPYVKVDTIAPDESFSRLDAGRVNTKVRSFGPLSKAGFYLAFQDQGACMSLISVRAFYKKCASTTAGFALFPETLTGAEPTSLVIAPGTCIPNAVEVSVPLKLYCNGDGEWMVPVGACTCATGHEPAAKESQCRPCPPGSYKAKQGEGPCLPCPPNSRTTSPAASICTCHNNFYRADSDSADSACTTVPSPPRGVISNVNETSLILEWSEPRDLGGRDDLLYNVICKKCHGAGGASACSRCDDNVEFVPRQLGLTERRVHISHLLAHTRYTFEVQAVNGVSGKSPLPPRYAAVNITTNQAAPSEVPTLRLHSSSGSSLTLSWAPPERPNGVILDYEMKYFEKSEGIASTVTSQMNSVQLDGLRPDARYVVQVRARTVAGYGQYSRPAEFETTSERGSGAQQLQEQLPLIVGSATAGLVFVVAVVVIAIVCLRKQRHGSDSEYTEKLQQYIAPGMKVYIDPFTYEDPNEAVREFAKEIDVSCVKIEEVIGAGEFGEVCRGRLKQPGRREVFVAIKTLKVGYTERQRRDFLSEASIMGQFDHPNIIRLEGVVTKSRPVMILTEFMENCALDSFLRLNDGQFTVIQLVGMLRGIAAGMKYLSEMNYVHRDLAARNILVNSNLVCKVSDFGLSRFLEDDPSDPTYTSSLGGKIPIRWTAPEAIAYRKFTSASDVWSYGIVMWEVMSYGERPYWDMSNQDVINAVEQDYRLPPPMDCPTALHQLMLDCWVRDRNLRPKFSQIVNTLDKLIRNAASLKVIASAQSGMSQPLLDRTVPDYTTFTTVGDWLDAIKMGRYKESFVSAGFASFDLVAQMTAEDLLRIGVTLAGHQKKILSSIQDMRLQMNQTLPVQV

[3] = molecular target: Death-associated protein kinase 2 (Homo sapiens) (UniProt Q9UIK4); test: Selectivity interaction (KinomeScan (DiscoverX)) EUB0000666a DAPK2; details: at 10 µM
[4] = molecular target: Serine/threonine-protein kinase 16 (Homo sapiens, UniProt O75716); test: Selectivity interaction (KinomeScan (DiscoverX)) EUB0001619a STK16; details: at 1 µM
[5] = molecular target: Mitogen-activated protein kinase kinase kinase 20 (Homo sapiens) (UniProt Q9NYL2); test: Selectivity interaction (KinomeScan (DiscoverX)) EUB0000092b MAP3K20; details: at 10 µM
Mitogen-activated protein kinase kinase kinase 20 (Homo sapiens), sequence (Q9NYL2 2-800 limits assumed): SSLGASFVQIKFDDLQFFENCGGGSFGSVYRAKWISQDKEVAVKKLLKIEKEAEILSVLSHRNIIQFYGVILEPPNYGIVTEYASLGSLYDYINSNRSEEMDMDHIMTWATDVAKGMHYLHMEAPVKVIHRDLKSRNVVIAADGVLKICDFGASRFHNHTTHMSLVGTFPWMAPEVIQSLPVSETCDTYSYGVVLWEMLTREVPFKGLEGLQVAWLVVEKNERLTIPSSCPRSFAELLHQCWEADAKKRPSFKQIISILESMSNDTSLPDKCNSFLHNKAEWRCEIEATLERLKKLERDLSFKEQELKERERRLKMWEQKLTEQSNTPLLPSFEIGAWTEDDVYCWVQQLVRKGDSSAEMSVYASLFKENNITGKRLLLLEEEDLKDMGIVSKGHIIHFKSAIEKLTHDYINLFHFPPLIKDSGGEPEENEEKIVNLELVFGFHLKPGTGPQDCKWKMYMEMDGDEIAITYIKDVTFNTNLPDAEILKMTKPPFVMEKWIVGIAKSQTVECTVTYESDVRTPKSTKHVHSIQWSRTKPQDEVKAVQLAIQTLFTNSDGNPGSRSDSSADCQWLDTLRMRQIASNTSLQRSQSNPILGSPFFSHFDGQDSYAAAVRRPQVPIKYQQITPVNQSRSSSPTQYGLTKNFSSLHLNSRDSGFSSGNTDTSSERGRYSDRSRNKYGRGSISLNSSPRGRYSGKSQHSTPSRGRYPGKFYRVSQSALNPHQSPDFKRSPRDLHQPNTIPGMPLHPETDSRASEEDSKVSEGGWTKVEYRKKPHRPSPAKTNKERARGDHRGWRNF

Death-associated protein kinase 2 (Homo sapiens), sequence (Q9UIK4 whole entry, looked up): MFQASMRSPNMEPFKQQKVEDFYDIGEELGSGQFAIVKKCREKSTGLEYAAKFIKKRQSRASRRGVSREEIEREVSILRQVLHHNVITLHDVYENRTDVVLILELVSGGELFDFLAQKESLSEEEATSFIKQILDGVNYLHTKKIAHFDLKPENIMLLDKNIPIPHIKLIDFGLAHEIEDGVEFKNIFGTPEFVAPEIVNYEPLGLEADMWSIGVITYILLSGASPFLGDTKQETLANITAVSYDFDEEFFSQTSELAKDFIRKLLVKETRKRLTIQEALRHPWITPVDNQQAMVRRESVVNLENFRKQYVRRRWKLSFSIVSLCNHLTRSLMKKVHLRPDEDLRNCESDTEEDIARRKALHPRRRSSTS
Serine/threonine-protein kinase 16, sequence (O75716 whole entry): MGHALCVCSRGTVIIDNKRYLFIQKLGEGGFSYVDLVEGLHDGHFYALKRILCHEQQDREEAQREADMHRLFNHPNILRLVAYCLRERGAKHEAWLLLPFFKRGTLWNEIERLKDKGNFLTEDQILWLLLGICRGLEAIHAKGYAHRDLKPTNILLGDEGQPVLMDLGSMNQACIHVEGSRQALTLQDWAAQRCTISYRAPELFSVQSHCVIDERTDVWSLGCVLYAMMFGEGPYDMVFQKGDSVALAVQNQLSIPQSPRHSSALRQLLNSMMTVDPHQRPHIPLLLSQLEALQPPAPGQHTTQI

SMILES: Cc1cc(F)c(C(=O)Nc2cccc(-c3nncn3C(C)C)n2)cc1-n1cnc(C2CC2)c1
- % of control [1]: 97%

SMILES: Cn1cc(-n2cnc3c(NCc4nc5cc(Cl)c(Cl)cc5[nH]4)nc(N4CCOCC4)nc32)cn1
- % of control [2]: 2.4%

SMILES: O=C(NOC[C@H](O)CO)c1ccc(F)c(F)c1Nc1ccc(I)cc1F
- % of control [3]: 100%

SMILES: N#Cc1cccc(-c2c[nH]c3ncnc(N4CCOCC4)c23)c1
- % of control [4]: 33%

SMILES: CCC(=O)N1CCN(c2ccc(-n3c(=O)ccc4cnc5ccc(-c6cnc7ccccc7c6)cc5c43)cc2C(F)(F)F)CC1
- % of control [5]: 22%
